Measurements taken from PMC10350924, “Design, Synthesis, and Pharmacological Characterization of a Potent Soluble Epoxide Hydrolase Inhibitor for the Treatment of Acute Pancreatitis” (Journal of Medicinal Chemistry, 2023).

Assays:
[1] = system: EETs, DHETs and HETEs in pancreas homogenates; experiment: Targeted metabololipidomics of pancreas homogenates (cerulein AP mice); format: in vivo; conditions: not statistically significant
Protocol: The extraction of targeted lipid mediators from pancreas was performed as follows: tissues were lyophilized and weighted, 10 mg was homogenized and deproteinized with 500 μL of ice-cold 10% v/v MeOH spiked with labeled standards, and subsequently diluted with 500 μL of phosphate-buffered saline (PBS). Samples were then loaded on solid-phase extraction cartridges, Strata-X reversed-phase SPE columns (100 mg/3 mL) (Phenomenex, Bologna, Italy). Cartridges were conditioned with 3 mL of MeOH and equilibrated with 3 mL of ddH2O. Following loading, washed with 1 mL of 10% MeOH v/v, and finally eluted with 1.5 mL of MeOH. Eluted samples were dried with a SpeedVac (Savant, Thermo Scientific, Milan, Italy) and dissolved prior to UHPLC-MS/MS analyses in 50 μL of UHPLC solvent A.
The analyses were acquired using a Shimadzu Nexera UHPLC (Kyoto, Japan) coupled online to a triple quadrupole LCMS-8050 (Shimadzu) equipped with an electrospray ionization (ESI) source operating in ESI negative mode. The separation was performed on a Kinetex EVO C18 150 mm × 2.1 mm, 2.6 μm (100 Å) (Phenomenex, Bologna, Italy). The flow rate was set to 0.4 mL/min, and the column oven was set at 40 °C. The mobile phases were, respectively: (A) ACN/H2O 45:55 acidified with 0.02% CH3COOH v/v and (B) ACN/IPA 50:50. The following gradient was used: 0 min, 0%B, 0–12 min 60%B, 12.10 min, 60–99%B, 12.10–13.05 isocratic to 99% B; returning to 0% B in 0.1. MS source parameters: desolvation Line (DL) 250 °C, interface: 300 °C, block heater 350 °C, nebulizing (N2), drying (N2), and heating (Air) gas pressures: 3, 10, 10 L/min. Each analyte was optimized by infusing standard solution at 0.2 mg/mL, multiple reaction monitoring (MRM) mode was used. Detailed MRM parameters are available in Table S3. […]

[2] = system: cerulein-induced acute pancreatitis; experiment: Cerulein-induced acute pancreatitis in mice; format: in vivo
Protocol: Male CD-1 mice (33–39 g, 8 weeks, Charles River Laboratories; Calco, Italy) were fed with standard rodent chow and water and acclimated for 4 days at a 12 h light and 12 h dark schedule in a constant air-conditioned environment (21 ± 2 °C). The mice were randomly assigned to groups, and experiments were carried out during the light phase. Experimental procedures were conducted in conformity with Italian (D.L. 26/2014) and European (directive 2010/63/EU) regulations on the protection of animals used for scientific purposes and approved by the Italian Ministry. Acute pancreatitis (AP) was induced in mice by intraperitoneal (i.p.) injections of cerulein (50 μg/kg) hourly (5 times).[56] The groups were: (a) Sham group which received saline i.p. hourly (×5); […] The mice were killed 6 h after the first cerulein injection. Blood samples were obtained by direct intracardiac puncture. Pancreases and lungs were removed immediately, frozen, and stored at −80 °C until assayed. Portions of these organs were also fixed in formaldehyde for histological and immunohistochemical examination. Pancreas and lung sections (6 μm) were stained for hematoxylin & eosin (H&E). Evaluation of pancreas edema and inflammation signs were performed with a three-point scoring system. […] Analysis was performed in a blinded manner. Evaluation of lung edema and inflammatory infiltration was performed with three-point scoring system: 0, absent; 1, mild; 2, moderate; 3, severe. […] Tissue sections were then incubated with normal goat serum (Vector Laboratories, Newark, California) for 20 min to reduce nonspecific antibody interactions. Sections were incubated with primary antibody diluted in 0.01 M PBS, 2.5% normal serum (anti-Neutrophils rat monoclonal antibody, dilution 1:100, Abcam) for 30 min. After rinsing with PBS 0.01 M for 5 min, slides were incubated with biotinylated goat anti-rat IgG (Vector Laboratories, Newark, California), diluted 1:200, for 30 min. After rinsing with PBS 0.01 M for 5 min, slides were incubated with VECTASTAIN ABC Reagent (Vector Laboratories, Newark, California) for 30 min. Color development was performed using […] 3,3′-diaminobenzidine solution (Sigma-Aldrich, Milan, Italy), and sections were analyzed using Leica Microsystem with a magnification of 20x. Semiquantitative determination of protein expression was obtained with ImageJ/Fiji software. Liver injury was assessed by measuring the rise in plasma levels of alanine aminotransferase (ALT, a specific marker for hepatic parenchymal injury) and aspartate aminotransferase (AST, a nonspecific marker for hepatic injury) 6 h after cerulein injection by a clinical laboratory. Results are expressed in international units per milliliter.

[3] = 10 mg/kg i.p. 0.5 and 2.5 h after first cerulein injection, 6 h
[4] = 10 mg/kg i.p., 6 h after first cerulein injection

CC(C)c1ccc(Cn2ccc3cc(NC(=O)NCC45C[C@H]6C[C@@H](C4)C[C@@H](C5)C6)ccc32)cc1 [Compound 28, 1-(((3R,5R,7R)-Adamantan-1-yl)methyl)-3-(1-(4-isopropylbenzyl)-1H-indol-5-yl)urea]
change of DHET levels with respect to vehicle [1]: −31.5%
change of EETs levels with respect to vehicle [1]: +21.9%
change of HETEs levels (15-HETE, 12-HETE, 5-HETE) with respect to vehicle [1]: −13.4%
lung inflammation and neutrophilia [2, 3]: reduced
pancreatic injury (edema, cell infiltration, neutrophil numbers) [2, 3]: protective effect
serum ALT levels [2, 4]: decreased
serum AST levels [2, 4]: decreased
